Measured values reported in PubChem BioAssay (NCI).
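1) Cells in 96-well plates. 2) Compound, 48 h, 5 concentrations. 3) Linear interpolation between surrounding doses. 4) Unreached endpoint = highest concentration. GI50 is the concentration that inhibits growth by half. TGI marks complete inhibition of growth.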

Columns and labels:
Test in all cases: NCI anticancer screen, dose series, 48 h
NCI-H460 lung = system: NCI-H460 lung
SW-620 colon = system: SW-620 colon
COLO 205 colon = system: COLO 205 colon
SN12C renal = system: SN12C renal
SK-MEL-2 melanoma = system: SK-MEL-2 melanoma
SK-MEL-28 melanoma = system: SK-MEL-28 melanoma
T-47D breast = system: T-47D breast
HCC-2998 colon = system: HCC-2998 colon
RXF 393 renal = system: RXF 393 renal
UACC-62 melanoma = system: UACC-62 melanoma

| Structure (SMILES) | GI50 (NCI-H460 lung) [µM] | TGI (NCI-H460 lung) [µM] | GI50 (SW-620 colon) [µM] | TGI (SW-620 colon) [µM] | GI50 (COLO 205 colon) [µM] | TGI (COLO 205 colon) [µM] | GI50 (SN12C renal) [µM] | TGI (SN12C renal) [µM] | GI50 (SK-MEL-2 melanoma) [µM] | TGI (SK-MEL-2 melanoma) [µM] | GI50 (SK-MEL-28 melanoma) [µM] | TGI (SK-MEL-28 melanoma) [µM] | GI50 (T-47D breast) [µM] | TGI (T-47D breast) [µM] | GI50 (HCC-2998 colon) [µM] | TGI (HCC-2998 colon) [µM] | GI50 (RXF 393 renal) [µM] | TGI (RXF 393 renal) [µM] | GI50 (UACC-62 melanoma) [µM] | TGI (UACC-62 melanoma) [µM] |
| --- | --- | --- | --- | --- | --- | --- | --- | --- | --- | --- | --- | --- | --- | --- | --- | --- | --- | --- | --- | --- |
| COc1ccc(C(=O)COC(=O)[C@H](C[Se][Se]C[C@H](NC(=O)c2ccc(Br)cc2F)C(=O)OCC(=O)c2ccc(OC)cc2)NC(=O)c2ccc(Br)cc2F)cc1 | 0.353 | 1.31 | 1.44 | 3.89 | 2.56 | 7.95 | 1.04 | 2.49 | 0.862 | 2.57 | 1.59 | 5.61 | 1.73 | 6.03 | 0.617 | 1.85 | 1.56 | 3.19 | 1.06 | 2.86 |
| C=CC(C1=CC(=O)C(OC)=CC1=O)c1ccccc1 (centres undefined) |  | 36.3 |  | 48.6 |  | 36.6 |  | 28 |  | 30.3 |  | 29.1 |  | 8.9 |  | 30.7 |  | 29.2 |  | 29 |
| NC1CCC(Nc2nc(NCc3ccc(-c4cccs4)nc3)c3ncn(C4CCCC4)c3n2)CC1 (centres undefined) | 0.0913 | 2.19 | < 0.0152 | 2.03 | 0.0169 | 0.035 | 0.0341 | 1.81 | 0.0908 | 0.288 | 0.0296 | 0.117 | 0.033 | 0.699 | 0.0307 | 0.49 | 0.0148 | 0.0378 | 0.087 | 0.365 |
| C[C@H](Nc1ncnc2nc[nH]c12)c1cc2ccc(F)cc2nc1-c1ccccn1 | > 100 | > 100 | > 100 | > 100 | > 100 | > 100 | 57.8 | > 100 | > 100 | > 100 | > 100 | > 100 | 17.2 | 99.5 | > 100 | > 100 | 4.26 | 59.2 | 9.29 | > 100 |
| O=C(CN(/C=C/C(=O)C(F)(F)F)c1ccc(Cl)cc1)c1ccccc1 | 52.9 | > 100 | 14.6 | 62.1 | 15.3 | > 100 | 16 | 34.2 | 15.5 | 35.6 | 17.3 | 37.5 | 4.08 | > 100 | 7.93 | 21.1 | 21.7 | 43.5 | 11.7 | 26.4 |
| CC(=O)c1cc(C(=O)c2ccc3c(c2)Sc2ccccc2N3)c2c(C)cc(C)cn12 | 0.311 |  | 0.372 | > 100 | 0.222 | 0.535 | 0.724 | > 100 | 0.317 | > 100 | 3.64 | > 100 | 12.8 | > 100 | 0.494 | > 100 | 0.162 | 0.699 | 0.254 | > 100 |
| O=C1NC(=O)C(=C/C=C/c2ccccc2)C(=O)N1 | 2.78 | 7.31 | 1.79 | 4.22 | 2.33 | 4.97 | 3.27 | 19.5 | 3.65 | 16.2 | 1.91 | 3.59 | 11.6 | 53 | 2.2 | 4.1 | 1.39 | 2.71 | 1.88 | 4.5 |
| Cc1ccc(-c2cc3c(SCC(=O)Nc4cc(C(F)(F)F)ccc4Cl)nccn3n2)cc1 | 81.6 | > 100 | > 100 | > 100 | > 100 | > 100 | > 100 | > 100 | > 100 | > 100 | > 100 | > 100 | 23.6 | > 100 | > 100 | > 100 | > 100 | > 100 | > 100 | > 100 |
| Clc1ccc2c(c1)N(CCCN1CCCC1)c1ccccc1S2 | 15.2 | 35.4 | 10.7 | 25.8 | 2.5 | 7.34 | 11.7 | 27.3 | 10.8 | 23.9 | 6.6 | 21.4 | 12.4 | 28.5 | 4.41 | 15.5 | 3.47 | 12.1 | 10.2 | 25.2 |
| C[C@]12CC[C@H](O)C[C@H]1CC[C@@H]1[C@@H]2CC[C@]2(C)[C@@H](C3=CC(=O)OC3)[C@@H](O)C[C@]12O |  | 1.72 |  | 14.6 |  | 7.18 |  | 3.25 |  | 5.02 |  | 25.6 |  | > 40.7 |  | 6.7 |  | 3.51 |  | 6.82 |
